Results on one compound are retold here after patent US20230225972A1 (priority 2020, published 2023).

This assay relates to influenza. More on the design: species or system Mice. The settings on record: mouse, in vivo.

For the compound `Nc1nc2c(ncn2[C@@H]2O[C@@H]3COP(=O)(O)O[C@H]4[C@@H](O)[C@H](n5cnc6c(=O)[nH]c(N)nc65)O[C@@H]4COP(=O)(O)O[C@H]3[C@H]2O)c(=O)[nH]1` [c-di-GMP], the “viral replication in the nose” value is recorded as “facilitate reduction of viral replication in the nose”.
